The subject of one data set is androgen receptor. The data set is described as follows: Androgenic activity: transcriptional activation (MMTV-Luc luciferase reporter) assay with 1 nM DHT. The format is cell-based, human. The conditions noted are these: 24 hours. How it is done:
(§1) The stable cell line was maintained by subculturing using RPMI1640 and 10% fetal bovine serum (GIBCO BRL, Gaithersburg, Md., USA). For transcriptional activation assay, the cells were seeded in a 96-well plate, with 25,000 cells per well, while replacing the medium with phenol red-free RPMI1640 containing 5% charcoal-stripped fetal bovine serum. […] The cell culture was treated and incubated with CCK-8 at 1:10 for 2 hours. 2 hour later, the absorbance of each well was measured at 450 nm. All the experiments were 3 times and the absorbance was averaged. […] The experimental result is shown in Table 1, Table 2 and FIGS. 1-4.

The next data set concerns Dkk-1. In words: Inhibition of expression of hair follicle catagen factor (Dkk-1 ELISA). The format is cell-based. The conditions noted are these: 24 hours, human dermal papilla cells (hDPCs). How it is done: The inhibition of the expression of the hair follicle catagen marker Dkk-1 was investigated using human dermal papilla cells (hDPCs). The human dermal papilla cells were purchased from PromoCell. The hDPCs were subcultured in an hDPC culture medium (follicle dermal papilla cell growth medium; PromoCell, Heidelberg, Germany) containing a medium additive (Supplement Mix; PromoCell, Heidelberg, Germany), 100 units/mL penicillin and […] streptomycin under the condition of 37° C. and 5% CO2. One million subcultured hDPCs were seeded onto a 100-mm cell culture dish and then cultured in an incubator at 37° C. 48 hours later, after treating with each of gypsogenin 3-O-β-D-glucuronopyranoside, deapioplatycodin D, congmunoside X and chikusetsusaponin IVa at 2 ppm or 20 ppm for 24 hours, the cell culture was subjected to Dkk-1 ELISA assay (R&D Systems, USA). The protein amount of each test group was identified by BCA assay and corrected with the result of Dkk-1 ELISA.
(In general: In an ELISA, binding on a coated surface is turned into a signal by an enzyme label.)

In data set [1] the test system is 22Rv1 human prostate cancer cells. The data set is described as follows: CCK-8 assay conducted in parallel to investigate cytotoxicity (cell viability). How it is done:
as §1
For orientation: Tetrazolium dyes change colour on reduction, which living cells bring about.

In the case of `CC1(C)CC[C@]2(C(=O)O[C@@H]3O[C@H](CO)[C@@H](O)[C@H](O)[C@H]3O)CC[C@]3(C)C(=CC[C@@H]4[C@@]5(C)CC[C@H](O[C@@H]6O[C@H](C(=O)O)[C@@H](O)[C@H](O)[C@H]6O)C(C)(C)[C@@H]5CC[C@]43C)[C@@H]2C1` [Chikusetsusaponin IVa, chikusetsusaponin IVa], the “Androgenic activity (% of 1 nM DHT)” value with androgen receptor (0.2 ppm together with 1 nM DHT) is recorded as 84.7 % of 1 nM DHT; in the data set with androgen receptor (2 ppm together with 1 nM DHT), 79 % of 1 nM DHT; in the data set with androgen receptor (20 ppm together with 1 nM DHT), 77.5 % of 1 nM DHT. Further, the “Relative expression level of Dkk-1 (% of untreated group)” value with Dkk-1 (2 ppm) is reported as 85.2 % of untreated group; with Dkk-1 (20 ppm) it was 70.9 % of untreated group.

For `C[C@@H]1O[C@@H](O[C@H]2[C@H](OC(=O)[C@]34CCC(C)(C)C[C@H]3C3=CC[C@@H]5[C@@]6(C)C[C@H](O)[C@H](O[C@@H]7O[C@H](CO)[C@@H](O)[C@H](O)[C@H]7O)C(CO)(CO)[C@@H]6CC[C@@]5(C)[C@]3(C)C[C@H]4O)OC[C@H](O)[C@@H]2O)[C@H](O)[C@H](O)[C@H]1O[C@@H]1OC[C@@H](O)[C@H](O)[C@H]1O` [Deapioplatycodin D, deapioplatycodin D], the “Androgenic activity (% of 1 nM DHT)” value in the data set on androgen receptor (0.2 ppm together with 1 nM DHT) was 89.1 % of 1 nM DHT; with androgen receptor (2 ppm together with 1 nM DHT), 72.2 % of 1 nM DHT; in the data set with androgen receptor (20 ppm together with 1 nM DHT), 34.9 % of 1 nM DHT. Also, the “Cell viability (% of 1 nM DHT)” value in data set [1] (0.2 ppm together with 1 nM DHT, CCK-8) is recorded as 102.2 % of 1 nM DHT; in data set [1] (2 ppm together with 1 nM DHT, CCK-8) it was 99.4 % of 1 nM DHT; in data set [1] (20 ppm together with 1 nM DHT, CCK-8), 81.6 % of 1 nM DHT. Also, the entries for the “Relative expression level of Dkk-1 (% of untreated group)” value in the data set on Dkk-1 (2 ppm) and with Dkk-1 (20 ppm) were 86.4 % of untreated group and 76.7 % of untreated group, respectively.

`CC1(C)CC[C@]2(C(=O)O[C@@H]3O[C@H](CO)[C@@H](O)[C@H](O)[C@H]3O)CC[C@]3(C)C(=CC[C@@H]4[C@@]5(C)CC[C@H](O[C@@H]6O[C@H](CO)[C@@H](O)[C@H](O[C@@H]7O[C@H](CO)[C@@H](O)[C@H](O[C@@H]8O[C@H](CO)[C@@H](O)[C@H](O)[C@H]8O)[C@H]7O)[C@H]6O[C@@H]6O[C@H](CO)[C@@H](O)[C@H](O)[C@H]6O)C(C)(C)[C@@H]5CC[C@]43C)[C@@H]2C1` [Congmunoside X, congmunoside X]: the “Androgenic activity (% of 1 nM DHT)” value is reported as 104.4 % of 1 nM DHT with androgen receptor (2 ppm together with 1 nM DHT), 85.9 % of 1 nM DHT in the data set with androgen receptor (20 ppm together with 1 nM DHT) and 14.9 % of 1 nM DHT in the data set on androgen receptor (200 ppm together with 1 nM DHT). The “Relative expression level of Dkk-1 (% of untreated group)” value is 90.8 % of untreated group with Dkk-1 (2 ppm) and 81.2 % of untreated group with Dkk-1 (20 ppm).

`C[C@]12CCC(=O)C[C@@H]1CC[C@@H]1[C@@H]2CC[C@]2(C)[C@@H](O)CC[C@@H]12` [DHT, dihydrotestosterone, reference compound]: the “Androgenic activity (% of 1 nM DHT)” value with androgen receptor (DHT 1 nM alone, 22Rv1 MMTV-Luc stable cell line) was 100.0 % of 1 nM DHT. Moreover, the “Cell viability (% of 1 nM DHT)” value in data set [1] (DHT 1 nM alone, CCK-8, 22Rv1 stable cell line) was 100.0 % of 1 nM DHT.

As to `CC1(C)CC[C@]2(C(=O)O)CC[C@]3(C)C(=CC[C@@H]4[C@@]5(C)CC[C@H](O[C@@H]6O[C@H](C(=O)O)[C@@H](O)[C@H](O)[C@H]6O)[C@@](C)(C=O)[C@@H]5CC[C@]43C)[C@@H]2C1` [Gypsogenin 3-O-β-D-glucuronopyranoside, gypsogenin 3-O-β-D-glucuronopyranoside], the figures for the “Androgenic activity (% of 1 nM DHT)” value in the data set on androgen receptor (0.2 ppm together with 1 nM DHT), with androgen receptor (2 ppm together with 1 nM DHT) and in the data set on androgen receptor (20 ppm together with 1 nM DHT) were 98.1 % of 1 nM DHT, 79.1 % of 1 nM DHT and −9.8 % of 1 nM DHT, respectively. In addition, the entries for the “Relative expression level of Dkk-1 (% of untreated group)” value in the data set with Dkk-1 (2 ppm) and with Dkk-1 (20 ppm) were 96.5 % of untreated group and 77.5 % of untreated group, respectively.

Source of the values: patent US20230023847A1, “COMPOSITION FOR PREVENTING HAIR LOSS AND PROMOTING HAIR REGROWTH” (LG HOUSEHOLD & HEALTH CARE LTD., priority 2020, published 2023).
